Experiments:
PKR R510Q = PKR R510Q (Homo sapiens, UniProt P30613, R510Q); test: PKR Mutant Assay, AC50 against PKR R510Q; format: biochemical; settings: mutant PKR R510Q enzyme
Outline: (§1)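 LDH-coupled NADH depletion read as A340 change at room temperature after ADP (0.22-1.65 mM) start. Compounds, tested from 100 μM final in 3-fold steps over 11 points with 1% DMSO, sat 60 min with enzyme (80-400 ng/well), PEP 0.1-0.5 mM and NADH 180 uM in Tris pH 7.5/KCl/MgCl2/DTT/BSA buffer.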

PKR WT [1] = target: T1, PKR WT (Homo sapiens, UniProt P30613); test: PKR WT cell based AC50 assay; settings: wild type PKR
T1 sequence (P30613 whole entry): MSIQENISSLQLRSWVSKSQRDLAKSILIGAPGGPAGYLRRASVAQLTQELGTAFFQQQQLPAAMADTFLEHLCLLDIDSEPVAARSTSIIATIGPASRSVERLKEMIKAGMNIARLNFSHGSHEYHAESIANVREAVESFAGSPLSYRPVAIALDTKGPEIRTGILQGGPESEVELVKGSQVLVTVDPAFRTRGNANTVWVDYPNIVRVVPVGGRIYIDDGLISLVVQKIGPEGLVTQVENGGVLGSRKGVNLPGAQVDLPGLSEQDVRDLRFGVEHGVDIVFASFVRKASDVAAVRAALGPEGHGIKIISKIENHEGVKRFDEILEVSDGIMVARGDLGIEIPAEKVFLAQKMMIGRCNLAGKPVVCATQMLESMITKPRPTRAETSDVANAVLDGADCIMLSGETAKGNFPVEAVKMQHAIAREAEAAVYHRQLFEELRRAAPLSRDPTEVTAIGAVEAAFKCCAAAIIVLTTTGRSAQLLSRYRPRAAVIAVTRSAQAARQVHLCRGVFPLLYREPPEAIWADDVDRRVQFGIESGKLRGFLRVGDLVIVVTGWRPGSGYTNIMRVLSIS

PKR WT [2] = target: T1, PKR WT; test: PKR WT enzymatic AC50 assay; format: biochemical; settings: wild type PKR
Outline: as §1

PKR R532W = PKR R532W (Homo sapiens, UniProt P30613, R532W); test: PKR Mutant Assay, AC50 against PKR R532W; format: biochemical; settings: mutant PKR R532W enzyme
Chain of PKR R532W (P30613 whole entry R532W): as the sequence (P30613 whole entry) above, with R532W counted along it
Outline: as §1

Chain of PKR R510Q (P30613 whole entry R510Q): as the sequence (P30613 whole entry) above, with R510Q counted along it

AC50 (PKR R510Q)	AC50 (PKR WT [1])	AC50 (PKR WT [2])	AC50 (PKR R532W)	Compound
0.101 to 1 µM	< 0.1 µM	< 0.1 µM	< 0.1 µM	Cc1cccnc1C1(O)CCN(C(=O)c2ccc(NS(=O)(=O)c3cccc4cccnc34)cc2)CC1 [Compound 153, N-(4-(4-hydroxy-4-(3-methylpyridin-2-yl)piperidine-1-carbonyl)phenyl)quinoline-8-sulfonamide]
0.101 to 1 µM	0.101 to 1 µM	0.101 to 1 µM	0.101 to 1 µM	CC(CC1(O)CCN(C(=O)c2ccc(NS(=O)(=O)c3cccc4scnc34)cc2)CC1)C(F)F (stereo not shown) [Compound 405, N-(4-(4-(3,3-difluoro-2-methylpropyl)-4-hydroxypiperidine-1-carbonyl)phenyl)benzo[d]thiazole-4-sulfonamide]
< 0.1 µM	< 0.1 µM	< 0.1 µM	< 0.1 µM	CCCCC1(O)CCN(C(=O)c2ccc(NS(=O)(=O)c3cccc4cccnc34)cc2)CC1 [Compound 167, N-(4-(4-butyl-4-hydroxypiperidine-1-carbonyl)phenyl)quinoline-8-sulfonamide]
< 0.1 µM	< 0.1 µM	< 0.1 µM	< 0.1 µM	O=C(c1ccc(NS(=O)(=O)c2cccc3cccnc23)c(F)c1)N1CCC(O)(c2ccccc2Cl)CC1 [Compound 143, N-(4-(4-(2-chlorophenyl)-4-hydroxypiperidine-1-carbonyl)-2-fluorophenyl)quinoline-8-sulfonamide]
0.101 to 1 µM	< 0.1 µM	< 0.1 µM	< 0.1 µM	O=C(c1ccc(NS(=O)(=O)c2cccc3cccnc23)cc1)N1CCC(O)(Cc2cccc(F)c2F)CC1 [Compound 169, N-(4-(4-(2,3-difluorobenzyl)-4-hydroxypiperidine-1-carbonyl)phenyl)quinoline-8-sulfonamide]
< 0.1 µM	< 0.1 µM	< 0.1 µM	0.101 to 1 µM	Nc1nc2c(S(=O)(=O)Nc3ccc(C(=O)N4CCC(O)(/C=C/CC(F)(F)F)CC4)cc3)cccc2s1 [Compound 425]
0.101 to 1 µM	< 0.1 µM	< 0.1 µM	< 0.1 µM	O=C(c1ccc(NS(=O)(=O)c2cccc3scnc23)cc1)N1CCC(O)(c2ccccc2Cl)CC1 [Compound 155, N-(4-(4-(2-chlorophenyl)-4-hydroxypiperidine-1-carbonyl)phenyl)benzo[d]thiazole-4-sulfonamide]
0.101 to 1 µM	0.101 to 1 µM	< 0.1 µM	0.101 to 1 µM	O=C(c1ccc(NS(=O)(=O)c2cccc3cccnc23)cc1)N1CCC(O)(c2cccnc2F)CC1 [Compound 217, N-(4-(4-(2-fluoropyridin-3-yl)-4-hydroxypiperidine-1-carbonyl)phenyl)quinoline-8-sulfonamide]
0.101 to 1 µM	0.101 to 1 µM	0.101 to 1 µM	0.101 to 1 µM	O=C(c1ccc(NS(=O)(=O)c2cccc(Cl)c2Cl)cc1)N1CCC(O)(Cc2ccccc2)CC1 [Compound 237, N-(4-(4-benzyl-4-hydroxypiperidine-1-carbonyl)phenyl)-2,3-dichlorobenzenesulfonamide]
< 0.1 µM	< 0.1 µM	< 0.1 µM	< 0.1 µM	O=C(c1ccc(NS(=O)(=O)c2cccc3c(O)ncnc23)cc1)N1CCC(O)(CCCC(F)(F)F)CC1 [Compound 427]
0.101 to 1 µM	< 0.1 µM	< 0.1 µM	< 0.1 µM	O=C(c1ccc(NS(=O)(=O)c2cccc3cccnc23)cc1)N1CCC(O)(c2cnsc2)CC1 [Compound 180]
1.01 to 10 µM	1.01 to 10 µM	0.101 to 1 µM	0.101 to 1 µM	CCOC(=O)C1(CC(C)C)CCN(C(=O)c2ccc(NS(=O)(=O)c3cccc4cccnc34)cc2)CC1 [Compound 250, Ethyl 4-isobutyl-1-(4-(quinoline-8-sulfonamido)benzoyl)piperidine-4-carboxylate]
< 0.1 µM	< 0.1 µM	< 0.1 µM	< 0.1 µM	CNc1nc2c(S(=O)(=O)Nc3ccc(C(=O)N4CCC(O)(CC(C)C)CC4)cc3)cc(Cl)cc2s1 [Compound 385, 6-chloro-N-(4-(4-hydroxy-4-isobutylpiperidine-1-carbonyl)phenyl)-2-(methylamino)benzo[d]thiazole-4-sulfonamide]
< 0.1 µM	< 0.1 µM	< 0.1 µM	< 0.1 µM	CC(C)(C)CC1(O)CCN(C(=O)c2ccc(NS(=O)(=O)c3ccc(F)c4cccnc34)cc2)CC1 [Compound 187, 5-fluoro-N-(4-(4-hydroxy-4-neopentylpiperidine-1-carbonyl)phenyl)quinoline-8-sulfonamide]
< 0.1 µM	< 0.1 µM	< 0.1 µM	< 0.1 µM	O=C(c1ccc(NS(=O)(=O)c2cccc3cc(F)cnc23)cc1)N1CCC(O)(Cc2ccccc2)CC1 [Compound 128, N-(4-(4-benzyl-4-hydroxypiperidine-1-carbonyl)phenyl)-3-fluoroquinoline-8-sulfonamide]
< 0.1 µM	< 0.1 µM	< 0.1 µM	< 0.1 µM	CC(C)CC1(O)CCN(C(=O)c2ccc(NS(=O)(=O)c3cccc4sc(N)nc34)cc2)CC1 [Compound 406, 2-amino-N-(4-(4-hydroxy-4-isobutylpiperidine-1-carbonyl)phenyl)benzo[d]thiazole-4-sulfonamide]
0.101 to 1 µM	< 0.1 µM	< 0.1 µM	< 0.1 µM	Cc1cc(NS(=O)(=O)c2cccc3cccnc23)ccc1C(=O)N1CCC(O)(c2ccccc2Cl)CC1 [Compound 141, N-(4-(4-(2-chlorophenyl)-4-hydroxypiperidine-1-carbonyl)-3-methylphenyl)quinoline-8-sulfonamide]
0.101 to 1 µM	0.101 to 1 µM	< 0.1 µM	< 0.1 µM	O=C(c1ccc(NS(=O)(=O)c2cccc3cccnc23)cc1)N1CCC(O)(Cc2cccc(C(F)(F)F)c2)CC1 [Compound 152, N-(4-(4-hydroxy-4-(3-(trifluoromethyl)benzyl)piperidine-1-carbonyl)phenyl)quinoline-8-sulfonamide]
0.101 to 1 µM	< 0.1 µM	< 0.1 µM	< 0.1 µM	Cc1nc2c(S(=O)(=O)Nc3ccc(C(=O)N4CCC(O)(c5ccccc5Cl)CC4)cc3)cccc2o1 [Compound 383, N-(4-(4-(2-chlorophenyl)-4-hydroxypiperidine-1-carbonyl)phenyl)-2-methylbenzo[d]oxazole-4-sulfonamide]
< 0.1 µM	< 0.1 µM	< 0.1 µM	< 0.1 µM	O=C(c1ccc(NS(=O)(=O)c2cccc3cccnc23)cc1)N1CCC(O)(c2cccc(F)c2Cl)CC1 [Compound 123, N-[4-[4-(2-chloro-3-fluoro-phenyl)-4-hydroxy-piperidine-1-carbonyl]phenyl]quinoline-8-sulfonamide]
< 0.1 µM	< 0.1 µM	< 0.1 µM	< 0.1 µM	CC(C)CC1(O)CCN(C(=O)c2ccc(NS(=O)(=O)c3cccc4cccnc34)cc2)CC1 [Compound 140, N-(4-(4-hydroxy-4-isobutylpiperidine-1-carbonyl)phenyl)quinoline-8-sulfonamide]
0.101 to 1 µM	< 0.1 µM	< 0.1 µM	< 0.1 µM	O=C(c1ccc(NS(=O)(=O)c2cccc3cccnc23)cc1)N1CCC(O)(c2cnsc2)CC1 [Compound 353]
0.101 to 1 µM	0.101 to 1 µM	< 0.1 µM	< 0.1 µM	O=C(c1ccc(NS(=O)(=O)c2cccc3scnc23)cc1)N1CCC(O)(CCC(F)=C(F)F)CC1 [Compound 395, N-(4-(4-hydroxy-4-(3,4,4-trifluorobut-3-enyl)piperidine-1-carbonyl)phenyl)benzo[d]thiazole-4-sulfonamide]
0.101 to 1 µM	0.101 to 1 µM	< 0.1 µM	< 0.1 µM	Cc1ccc(C2(O)CCN(C(=O)c3ccc(NS(=O)(=O)c4cccc5cccnc45)cc3)CC2)c(Cl)c1 [Compound 190, N-[4-[4-(2-chloro-4-methyl-phenyl)-4-hydroxy-piperidine-1-carbonyl]phenyl]quinoline-8-sulfonamide]
1.01 to 10 µM	0.101 to 1 µM	0.101 to 1 µM	0.101 to 1 µM	CC(C)(O)CC1(O)CCN(C(=O)c2ccc(NS(=O)(=O)c3cccc4cccnc34)cc2)CC1 [Compound 241, N-(4-(4-hydroxy-4-(2-hydroxy-2-methylpropyl)piperidine-1-carbonyl)phenyl)quinoline-8-sulfonamide]
0.101 to 1 µM	< 0.1 µM	< 0.1 µM	< 0.1 µM	O=C(c1ccc(NS(=O)(=O)c2cccc3cccnc23)cc1)N1CCC(O)(c2ncccc2C(F)(F)F)CC1 [Compound 164, N-(4-(4-hydroxy-4-(3-(trifluoromethyl)pyridin-2-yl)piperidine-1-carbonyl)phenyl)quinoline-8-sulfonamide]
1.01 to 10 µM	< 0.1 µM	0.101 to 1 µM	0.101 to 1 µM	O=C(c1ccc(NS(=O)(=O)c2cccc3nccnc23)cc1)N1CCC(O)(c2ccccc2)CC1 [Compound 243, N-(4-(4-hydroxy-4-phenylpiperidine-1-carbonyl)phenyl)quinoxaline-5-sulfonamide]
0.101 to 1 µM	0.101 to 1 µM	< 0.1 µM	< 0.1 µM	O=C(c1ccc(NS(=O)(=O)c2cc(F)cc3cccnc23)cc1)N1CCC(O)(c2ccccc2)CC1 [Compound 196, 6-fluoro-N-(4-(4-hydroxy-4-phenylpiperidine-1-carbonyl)phenyl)quinoline-8-sulfonamide]

— US9108921B2, “Therapeutic compounds and compositions” (AGIOS PHARMACEUTICALS, INC, priority 2014, dated 2015)
